These results are taken from US10647713B2 (Nimbus Lakshmi, Inc., priority 2016, dated 2020).

pKd: −log10 of the molar value. Some results are limits rather than exact numbers.

As usually defined, the pKd is the Kd on a negative log10 scale, so that one unit is a factor of ten.

Sequence of human TYK2 (JH2domain-pseudokinase) (P29597 556-888): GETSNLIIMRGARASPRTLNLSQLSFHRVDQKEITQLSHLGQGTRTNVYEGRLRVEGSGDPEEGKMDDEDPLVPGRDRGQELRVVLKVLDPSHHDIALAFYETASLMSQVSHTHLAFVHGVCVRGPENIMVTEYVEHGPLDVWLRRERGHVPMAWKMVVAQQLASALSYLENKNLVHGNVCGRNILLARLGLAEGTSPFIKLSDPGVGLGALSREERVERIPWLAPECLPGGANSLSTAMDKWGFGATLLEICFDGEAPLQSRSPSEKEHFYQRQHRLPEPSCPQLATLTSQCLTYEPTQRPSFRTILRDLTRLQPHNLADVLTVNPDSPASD

This test concerns the target human TYK2 (JH2domain-pseudokinase) (Homo sapiens (Human), UniProt P29597). Description: TYK2 JH2 Domain Binding Assay (KINOMEscan, DiscoveRx). To be noted: 11-point dilution, duplicate. Summed up: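 Kd from duplicate 11-point 3-fold dilutions starting at 30,000 nM, fitted by Hill equation with slope fixed at −1. Compounds (final 0.9% DMSO) displace DNA-tagged HEK293-expressed TYK2 JH2 fusion (<0.1 nM) from ligand-coated beads over 1 h at room temperature; eluted kinase read by qPCR.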
With `Cc1c(-c2ccc(Nc3cc(NC(=O)C4CC4)nc4[nH]c(C(F)F)nc34)c(N(C)S(C)(=O)=O)c2)cnn1C` [I-198, N N-(2-(difluoromethyl)-7-((4-(1,5-dimethyl-1H-pyrazol-4-yl)-2-(N-methylmethylsulfonamido)phenyl)amino)-3H-imidazo[4,5-b]pyridin-5-yl)cyclopropanecarboxamide], the pKd is more than 10.00.

`Cc1nc2c(Nc3ccc(-c4cnn(C)c4C)cc3N(C)S(C)(=O)=O)cc(NC(=O)C3CC3)nc2[nH]1` [I-199, N-(7-((4-(1,5-dimethyl-1H-pyrazol-4-yl)-2-(N-methylmethylsulfonamido)phenyl)amino)-2-methyl-3H-imidazo[4,5-b]pyridin-5-yl)cyclopropanecarboxamide] gave a pKd of more than 10.00.

Molecule `[2H]C([2H])([2H])N(c1ccccc1Nc1cc(Nc2cc(C)nc(C)n2)nc2[nH]c(C(F)F)nc12)S(C)(=O)=O` [I-200, N-(2-((2-(difluoromethyl)-5-((2,6-dimethylpyrimidin-4-yl)amino)-3H-imidazo[4,5-b]pyridin-7-yl)amino)phenyl)-N-(methyl-d3)methanesulfonamide] gave a pKd of 9.30 to 10.00.

On to `[2H]C([2H])([2H])N(c1ccccc1Nc1cc(Nc2cc(C)nc(C)n2)nc2[nH]c(C)nc12)S(C)(=O)=O` [I-201, N-(2-((5-((2,6-dimethylpyrimidin-4-yl)amino)-2-methyl-3H-imidazo[4,5-b]pyridin-7-yl)amino)phenyl)-N-(methyl-d3)methanesulfonamide], for which the pKd was 9.30 to 10.00.

As to `CN(c1cc(C(F)F)ccc1Nc1cc(Nc2ccn(C)n2)nc2[nH]c(C(F)F)nc12)S(C)(=O)=O` [I-202, N-(5-(difluoromethyl)-2-((2-(difluoromethyl)-5-((1-methyl-1H-pyrazol-3-yl)amino)-3H-imidazo[4,5-b]pyridin-7-yl)amino)phenyl)-N-methylmethanesulfonamide], the pKd is 9.00 to 9.30.

As for `CS(=O)(=O)c1cc(C2CC2)ccc1Nc1cc(NC(=O)C2CC2)nc2[nH]c(C(F)F)nc12` [I-203], the pKd is 9.30 to 10.00.

`COc1c(Nc2cc(Nc3cnc(C(C)(C)OC)c(C#N)n3)nc3[nH]c(C)nc23)cccc1-c1nnn(C)n1` [I-204, 6-((7-((2-methoxy-3-(2-methyl-2H-tetrazol-5-yl)phenyl)amino)-2-methyl-3H-imidazo[4,5-b]pyridin-5-yl)amino)-3-(2-methoxypropan-2-yl)pyrazine-2-carbonitrile]: the pKd is 9.00 to 9.30.

Take `CS(=O)(=O)c1cc(Cl)ccc1Nc1cc(NC(=O)[C@H]2C[C@H]2F)nc2[nH]c(C(F)F)nc12` [I-205]: the pKd is 9.00 to 9.30.

`COc1c(Nc2cc(Nc3cc(C(F)(F)F)n(C)n3)nc3[nH]c(C(F)F)nc23)cccc1-c1ncn(C)n1` [I-206, 2-(difluoromethyl)-N7-(2-methoxy-3-(1-methyl-1H-1,2,4-triazol-3-yl)phenyl)-N5-(1-methyl-5-(trifluoromethyl)-1H-pyrazol-3-yl)-3H-imidazo[4,5-b]pyridine-5,7-diamine]: the pKd is 8.00 to 9.00.

Regarding `Cc1nc2c(Nc3ccc(-c4cncn4C)cc3N(C)S(C)(=O)=O)cc(NC(=O)[C@@H]3C[C@@H]3F)nc2[nH]1` [I-208, (1S,2S)-2-fluoro-N-(2-methyl-7-((4-(1-methyl-1H-imidazol-5-yl)-2-(N-methylmethylsulfonamido)phenyl)amino)-3H-imidazo[4,5-b]pyridin-5-yl)cyclopropane-1-carboxamide], the pKd is 8.00 to 9.00.

Molecule `Cc1nc2c(Nc3ccc(-c4cnn(C)c4)cc3N(C)S(C)(=O)=O)cc(NC(=O)[C@@H]3C[C@@H]3F)nc2[nH]1` [I-209, (1S,2S)-2-fluoro-N-(2-methyl-7-((4-(1-methyl-1H-pyrazol-4-yl)-2-(N-methylmethylsulfonamido)phenyl)amino)-3H-imidazo[4,5-b]pyridin-5-yl)cyclopropane-1-carboxamide] gave a pKd of 9.30 to 10.00.

Molecule `Cn1ccc(-c2ccc(Nc3cc(NC(=O)[C@@H]4C[C@@H]4F)nc4[nH]c(C(F)F)nc34)c(S(C)(=O)=O)c2)n1` [I-210, (1S,2S)—N-(2-(difluoromethyl)-7-((4-(1-methyl-1H-pyrazol-3-yl)-2-(methylsulfonyl)phenyl)amino)-3H-imidazo[4,5-b]pyridin-5-yl)-2-fluorocyclopropane-1-carboxamide] had a pKd of 9.30 to 10.00.

In turn, `Cc1nc2c(Nc3ccc(-c4ccn(C)n4)cc3S(C)(=O)=O)cc(NC(=O)[C@@H]3C[C@@H]3F)nc2[nH]1` [I-211, (1S,2S)-2-fluoro-N-(2-methyl-7-((4-(1-methyl-1H-pyrazol-3-yl)-2-(methylsulfonyl)phenyl)amino)-3H-imidazo[4,5-b]pyridin-5-yl)cyclopropane-1-carboxamide] had a pKd of 9.30 to 10.00.

`Cn1cncc1-c1ccc(Nc2cc(NC(=O)C3CC3)nc3[nH]c(C(F)F)nc23)c(S(C)(=O)=O)c1` [I-214, N-(2-(difluoromethyl)-7-((4-(1-methyl-1H-imidazol-5-yl)-2-(methylsulfonyl)phenyl)amino)-3H-imidazo[4,5-b]pyridin-5-yl)cyclopropanecarboxamide] had a pKd of more than 10.00.

The molecule `Cc1nc2c(Nc3ccc(-c4cncn4C)cc3S(C)(=O)=O)cc(NC(=O)C3CC3)nc2[nH]1` [I-215, N-(2-methyl-7-((4-(1-methyl-1H-imidazol-5-yl)-2-(methylsulfonyl)phenyl)amino)-3H-imidazo[4,5-b]pyridin-5-yl)cyclopropanecarboxamide] had a pKd of more than 10.00.

Regarding `Cc1cc(-c2ccc(Nc3cc(NC(=O)C4CC4)nc4[nH]c(C(F)F)nc34)c(S(C)(=O)=O)c2)nn1C` [I-216, N-(2-(difluoromethyl)-7-((4-(1,5-dimethyl-1H-pyrazol-3-yl)-2-(methylsulfonyl)phenyl)amino)-3H-imidazo[4,5-b]pyridin-5-yl)cyclopropanecarboxamide], the pKd was more than 10.00.

For the molecule `Cc1nc2c(Nc3ccc(-c4cc(C)n(C)n4)cc3S(C)(=O)=O)cc(NC(=O)C3CC3)nc2[nH]1` [I-217, N-(7-((4-(1,5-dimethyl-1H-pyrazol-3-yl)-2-(methylsulfonyl)phenyl)amino)-2-methyl-3H-imidazo[4,5-b]pyridin-5-yl)cyclopropanecarboxamide], the negative-log Kd (pKd) is more than 10.00.

`CN(c1cc([C@H]2CCCCO2)ccc1Nc1cc(NC(=O)C2CC2)nc2[nH]c(C(F)F)nc12)S(C)(=O)=O` [I-218, (R)—N-(2-(difluoromethyl)-7-((2-(N-methylmethylsulfonamido)-4-(tetrahydro-2H-pyran-2-yl)phenyl)amino)-3H-imidazo[4,5-b]pyridin-5-yl)cyclopropanecarboxamide] had a pKd of 9.30 to 10.00.

Regarding `CN(c1cc([C@@H]2CCCCO2)ccc1Nc1cc(NC(=O)C2CC2)nc2[nH]c(C(F)F)nc12)S(C)(=O)=O` [I-219, (S)—N-(2-(difluoromethyl)-7-((2-(N-methylmethylsulfonamido)-4-(tetrahydro-2H-pyran-2-yl)phenyl)amino)-3H-imidazo[4,5-b]pyridin-5-yl)cyclopropanecarboxamide], the pKd is 9.30 to 10.00.

`CS(=O)(=O)c1cc(C2CCC2)ccc1Nc1cc(NC(=O)C2CC2)nc2[nH]c(C(F)F)nc12` [I-220, N-(7-((4-cyclobutyl-2-(methylsulfonyl)phenyl)amino)-2-(difluoromethyl)-3H-imidazo[4,5-b]pyridin-5-yl)cyclopropanecarboxamide]: the pKd is 8.00 to 9.00.

Molecule `Cc1nc2c(Nc3ccc(C4CCC4)cc3S(C)(=O)=O)cc(NC(=O)C3CC3)nc2[nH]1` [I-221, N-(7-((4-cyclobutyl-2-(methylsulfonyl)phenyl)amino)-2-methyl-3H-imidazo[4,5-b]pyridin-5-yl)cyclopropanecarboxamide] showed a pKd of 9.00 to 9.30.

`COCc1ccc(Nc2cc(NC(=O)C3CC3)nc3[nH]c(C(F)F)nc23)c(S(C)(=O)=O)c1` [I-222, N-(2-(difluoromethyl)-7-((4-(methoxymethyl)-2-(methylsulfonyl)phenyl)amino)-3H-imidazo[4,5-b]pyridin-5-yl)cyclopropanecarboxamide] showed a pKd of 9.30 to 10.00.

As to `COCc1ccc(Nc2cc(NC(=O)C3CC3)nc3[nH]c(C)nc23)c(S(C)(=O)=O)c1` [I-223, N-(7-((4-(methoxymethyl)-2-(methylsulfonyl)phenyl)amino)-2-methyl-3H-imidazo[4,5-b]pyridin-5-yl)cyclopropanecarboxamide], the pKd is 9.30 to 10.00.

For `Cc1nc2c(Nc3ccc(-c4ccn(C)n4)cc3S(C)(=O)=O)cc(NC(=O)[C@@H]3C[C@@H]3F)nc2[nH]1` [I-224, (1S,2S)-2-fluoro-N-(2-methyl-7-((4-(1-methyl-1H-pyrazol-3-yl)-2-(methylsulfonyl)phenyl)amino)-3H-imidazo[4,5-b]pyridin-5-yl)cyclopropane-1-carboxamide], the pKd is more than 10.00.

Turning to `Cc1nc2c(Nc3ccc(-c4ccn(C)n4)cc3S(C)(=O)=O)cc(NC(=O)[C@H]3C[C@H]3F)nc2[nH]1` [I-225, (1R,2R)-2-fluoro-N-(2-methyl-7-((4-(1-methyl-1H-pyrazol-3-yl)-2-(methylsulfonyl)phenyl)amino)-3H-imidazo[4,5-b]pyridin-5-yl)cyclopropane-1-carboxamide], the pKd is 9.30 to 10.00.

`Cc1nc2c(Nc3ccc(C4CCOCC4)cc3S(C)(=O)=O)cc(NC(=O)C3CC3)nc2[nH]1` [I-226, N-(2-methyl-7-((2-(methylsulfonyl)-4-(tetrahydro-2H-pyran-4-yl)phenyl)amino)-3H-imidazo[4,5-b]pyridin-5-yl)cyclopropanecarboxamide] had a pKd of 9.30 to 10.00.

In turn, `Cc1nc2c(Nc3ccc(-c4cn(C)cn4)cc3S(C)(=O)=O)cc(NC(=O)[C@H]3CC3(F)F)nc2[nH]1` [I-227, (R)-2,2-difluoro-N-(2-methyl-7-((4-(1-methyl-1H-imidazol-4-yl)-2-(methylsulfonyl)phenyl)amino)-3H-imidazo[4,5-b]pyridin-5-yl)cyclopropane-1-carboxamide] gave a pKd of 9.30 to 10.00.

Take `Cc1nc2c(Nc3ccc(-c4cn(C)cn4)cc3S(C)(=O)=O)cc(NC(=O)[C@@H]3CC3(F)F)nc2[nH]1` [I-228, (S)-2,2-difluoro-N-(2-methyl-7-((4-(1-methyl-1H-imidazol-4-yl)-2-(methylsulfonyl)phenyl)amino)-3H-imidazo[4,5-b]pyridin-5-yl)cyclopropane-1-carboxamide]: the negative logarithm of the Kd (pKd) is 8.00 to 9.00.
